According to patent US9927424B2, “Assays for identifying compounds that modulate bitter taste” (Chromocell Corporation, priority 2013, dated 2018):

What was measured:
TAS2R38 (PAV) = biological target: T1, TAS2R38 (PAV) (Homo sapiens, UniProt P59533, A49P/I296V); assay: Calcium fluorescence functional assay, TAS2R38 (PAV) cell line with mouse Gα15; assay type: cell-based
T1 construct: expressed in transfected cells
T1 sequence (P59533 1-333 A49P/I296V): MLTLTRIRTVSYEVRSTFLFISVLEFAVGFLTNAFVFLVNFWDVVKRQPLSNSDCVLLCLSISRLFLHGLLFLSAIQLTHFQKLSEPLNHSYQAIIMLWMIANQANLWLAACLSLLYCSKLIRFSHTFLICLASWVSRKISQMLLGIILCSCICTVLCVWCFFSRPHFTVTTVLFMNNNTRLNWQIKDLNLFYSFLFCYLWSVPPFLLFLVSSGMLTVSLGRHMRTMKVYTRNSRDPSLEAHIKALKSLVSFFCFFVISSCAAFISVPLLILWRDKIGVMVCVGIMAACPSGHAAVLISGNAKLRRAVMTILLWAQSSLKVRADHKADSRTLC
Protocol: (§1) A panel of cell lines expressing eight specific bitter taste receptors, a subset of the panel of twenty-five bitter receptors described in International Patent Application Publication WO 2010/088633 (see, e.g., Example 26), was used for the purpose of these analyses. Accordingly, each cell line of the panel expressed a human bitter taste receptor and mouse Gα15 signaling protein.
(§2) Each of the Examples below utilized the following functional assay: • Day 1: Stable cell lines were seeded onto black wall/clear bottom 96-well, plates (e.g., Corning, 3904). Approximately 40K cells were added per well and incubated at 37° C., 5% CO2 overnight in cell growth media (DMEM (Sigma, D5796) supplemented with 10% Fetal Bovine Serum (Sigma, 5178), 2 mM Glutamine (Sigma, G7513)). • Day 2: Growth media was discarded and cells were incubated at 37° C., 5% CO2 for 60 minutes in 100 ul of load solution containing 1× Ca-3 dye (Molecular Devices, R8090), 1% DMSO in buffer containing 130 mM NaCl, 2 mM CaCl2, 5 mM KCl, 1.2 mM MgCl2, 10 mM HEPES and 10 mM Glucose (pH 7.0). Probenecid was not included in the load solution. • Functional assay: After dye loading, cell plates were placed in a fluorescent plate reader (e.g., FDSS6000 (Hamamatsu, Japan)) and receptor stimulation was measured by adding 50 ul of 3× concentrated ligand/agonist stock. Fluorescence was monitored continuously for 10 s before agonist addition and for 100-250 s after stimulation with agonist.
(§3) Receptor Activation is defined as follows: • % Activation=[((Maximum signal fluorescence−Minimum signal fluorescence)−(Maximum control fluorescence−Minimum control fluorescence))/(Maximum buffer fluorescence−Minimum buffer fluorescence)]*100 • Functional Response=[(Maximum signal fluorescence−Minimum signal fluorescence)−(Maximum control fluorescence−Minimum control fluorescence)] • Signal fluorescence: refers to the change in fluorescence seen with addition of ligand • Control fluorescence: refers to the change in fluorescence seen with addition of buffer (negative control) • Calcium signals from ligand and control were normalized to the basal fluorescence of the cells prior to the stimulation.
(§4) A concentration analysis was performed and EC50 values were calculated by nonlinear regression using the formula: Y=Bottom+(Top−Bottom)/(1+10^((Log EC50−X)*Hill Slope)), X=log of dose or concentration, Y=Response (increasing as X increases), Top=maximum signal, Bottom=minimum signal. EC50 (half maximal effective concentration) refers to the molar concentration of the agonist which produces 50% of the maximum possible effective response from that agonist.

TAS2R16 = TAS2R16 (Homo sapiens, UniProt Q9NYV7); conditions: PCT/US12/61400; cited from earlier work
TAS2R44 [1] = biological target: T2, TAS2R44 (Homo sapiens, UniProt P59538); conditions: PCT/US12/61400; cited from earlier work
T2 construct: expressed in transfected cells
T2 sequence (P59538 1-309): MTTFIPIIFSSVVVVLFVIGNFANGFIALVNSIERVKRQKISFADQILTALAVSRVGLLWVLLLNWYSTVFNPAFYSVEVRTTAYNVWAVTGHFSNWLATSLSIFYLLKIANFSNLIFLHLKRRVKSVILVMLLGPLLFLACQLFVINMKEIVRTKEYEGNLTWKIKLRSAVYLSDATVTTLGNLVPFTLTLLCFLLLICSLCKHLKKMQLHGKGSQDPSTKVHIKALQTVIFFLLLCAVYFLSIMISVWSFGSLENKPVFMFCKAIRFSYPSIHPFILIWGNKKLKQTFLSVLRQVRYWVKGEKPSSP

TAS2R9 [2] = biological target: T3, TAS2R9 (Homo sapiens, UniProt Q9NYW1); conditions: PCT/US12/61400; cited from earlier work
T3 construct: expressed in transfected cells
T3 sequence (Q9NYW1 1-312): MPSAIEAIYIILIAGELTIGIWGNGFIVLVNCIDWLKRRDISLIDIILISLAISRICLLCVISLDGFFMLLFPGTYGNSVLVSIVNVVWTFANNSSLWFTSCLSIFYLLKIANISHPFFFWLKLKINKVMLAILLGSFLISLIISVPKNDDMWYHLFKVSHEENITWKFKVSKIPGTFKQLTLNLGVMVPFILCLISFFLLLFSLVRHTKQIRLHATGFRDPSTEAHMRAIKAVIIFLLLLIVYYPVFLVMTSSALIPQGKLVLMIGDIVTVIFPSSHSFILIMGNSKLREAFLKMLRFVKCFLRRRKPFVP

TAS2R4 [3] = biological target: T4, TAS2R4 (Homo sapiens, UniProt Q9NYW5); conditions: PCT/US12/61400; cited from earlier work
T4 construct: expressed in transfected cells
T4 sequence (Q9NYW5 1-299): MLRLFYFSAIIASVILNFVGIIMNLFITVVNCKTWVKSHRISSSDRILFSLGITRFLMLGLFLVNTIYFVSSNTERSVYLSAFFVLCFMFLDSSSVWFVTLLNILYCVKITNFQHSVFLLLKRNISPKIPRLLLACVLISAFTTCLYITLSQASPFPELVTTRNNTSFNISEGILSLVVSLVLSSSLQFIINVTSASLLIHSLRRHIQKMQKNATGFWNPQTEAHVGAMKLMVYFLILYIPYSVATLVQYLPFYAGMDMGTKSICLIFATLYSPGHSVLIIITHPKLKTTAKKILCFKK

TAS2R1 = TAS2R1 (Homo sapiens, UniProt Q9NYW7); conditions: PCT/US12/61400; cited from earlier work
TAS2R39 = biological target: T5, TAS2R39 (Homo sapiens, UniProt P59534); assay: Calcium fluorescence functional assay, TAS2R39 cell line with mouse Gα15; assay type: cell-based
T5 construct: expressed in transfected cells
T5 sequence (P59534 1-338): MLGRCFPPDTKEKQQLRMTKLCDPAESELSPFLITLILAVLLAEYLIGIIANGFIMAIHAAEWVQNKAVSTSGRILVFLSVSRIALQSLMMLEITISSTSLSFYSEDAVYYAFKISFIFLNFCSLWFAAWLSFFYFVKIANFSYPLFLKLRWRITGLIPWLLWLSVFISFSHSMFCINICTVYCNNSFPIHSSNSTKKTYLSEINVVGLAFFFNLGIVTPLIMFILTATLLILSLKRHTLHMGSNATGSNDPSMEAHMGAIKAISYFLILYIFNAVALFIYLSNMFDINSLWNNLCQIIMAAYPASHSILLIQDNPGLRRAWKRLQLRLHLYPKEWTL
Protocol: as §1, §2, §3, §4

TAS2R13 [4] = biological target: T6, TAS2R13 (Homo sapiens, UniProt Q9NYV9); conditions: PCT/US12/61400; cited from earlier work
T6 construct: expressed in transfected cells
T6 sequence (Q9NYV9 1-303): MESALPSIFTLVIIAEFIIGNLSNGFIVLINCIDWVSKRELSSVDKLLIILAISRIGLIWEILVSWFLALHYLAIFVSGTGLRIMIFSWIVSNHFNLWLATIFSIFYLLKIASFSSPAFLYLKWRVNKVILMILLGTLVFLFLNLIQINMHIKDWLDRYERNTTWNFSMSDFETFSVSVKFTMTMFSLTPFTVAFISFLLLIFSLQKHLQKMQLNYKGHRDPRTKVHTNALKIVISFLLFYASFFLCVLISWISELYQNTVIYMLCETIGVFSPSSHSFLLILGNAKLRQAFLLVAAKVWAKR

TAS2R14 [5] = biological target: T7, TAS2R14 (Homo sapiens, UniProt Q9NYV8); conditions: PCT/US12/61400; cited from earlier work
T7 construct: expressed in transfected cells
T7 sequence (Q9NYV8 1-317): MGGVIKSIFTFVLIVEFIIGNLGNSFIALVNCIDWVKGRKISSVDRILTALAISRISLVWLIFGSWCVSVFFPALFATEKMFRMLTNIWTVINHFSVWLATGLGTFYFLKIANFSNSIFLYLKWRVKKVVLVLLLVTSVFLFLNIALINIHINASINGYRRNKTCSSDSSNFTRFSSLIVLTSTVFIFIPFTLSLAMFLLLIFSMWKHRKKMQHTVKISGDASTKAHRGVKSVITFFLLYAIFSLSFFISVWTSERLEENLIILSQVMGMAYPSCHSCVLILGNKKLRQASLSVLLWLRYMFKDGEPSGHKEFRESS

TAS2R13 [6] = biological target: T6, TAS2R13; assay: Calcium fluorescence functional assay, TAS2R13 cell line with mouse Gα15; assay type: cell-based; conditions: 20 mM tastant; change in intracellular calcium
Protocol: as §1, §2, §3, §4

TAS2R14 [7] = biological target: T7, TAS2R14; assay: Calcium fluorescence functional assay, TAS2R14 cell line with mouse Gα15; assay type: cell-based; conditions: 20 mM tastant; change in intracellular calcium
Protocol: as §1, §2, §3, §4

TAS2R44 [8] = biological target: T2, TAS2R44; assay: Calcium fluorescence functional assay, TAS2R44 cell line with mouse Gα15; assay type: cell-based; conditions: 20 mM tastant; change in intracellular calcium
Protocol: as §1, §2, §3, §4

TAS2R9 [9] = biological target: T3, TAS2R9; assay: Calcium fluorescence functional assay, TAS2R9 cell line with mouse Gα15; assay type: cell-based; conditions: 20 mM tastant; change in intracellular calcium
Protocol: as §1, §2, §3, §4

TAS2R4 [10] = biological target: T4, TAS2R4; assay: Calcium fluorescence functional assay, TAS2R4 cell line with mouse Gα15; assay type: cell-based; conditions: 20 mM tastant; change in intracellular calcium
Protocol: as §1, §2, §3, §4

[11] = 20 mM tastant, change in intracellular calcium
[12] = approximately, increasing concentrations of tastant

TAS2R1, sequence (Q9NYW7 whole entry): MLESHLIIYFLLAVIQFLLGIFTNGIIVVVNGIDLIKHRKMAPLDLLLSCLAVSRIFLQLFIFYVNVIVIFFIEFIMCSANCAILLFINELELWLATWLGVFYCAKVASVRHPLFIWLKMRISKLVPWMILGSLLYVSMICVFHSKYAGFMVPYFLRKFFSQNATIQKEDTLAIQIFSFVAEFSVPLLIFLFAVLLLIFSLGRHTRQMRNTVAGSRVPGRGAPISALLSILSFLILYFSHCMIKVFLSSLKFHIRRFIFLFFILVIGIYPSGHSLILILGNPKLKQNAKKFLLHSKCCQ
TAS2R16, sequence (Q9NYV7 whole entry): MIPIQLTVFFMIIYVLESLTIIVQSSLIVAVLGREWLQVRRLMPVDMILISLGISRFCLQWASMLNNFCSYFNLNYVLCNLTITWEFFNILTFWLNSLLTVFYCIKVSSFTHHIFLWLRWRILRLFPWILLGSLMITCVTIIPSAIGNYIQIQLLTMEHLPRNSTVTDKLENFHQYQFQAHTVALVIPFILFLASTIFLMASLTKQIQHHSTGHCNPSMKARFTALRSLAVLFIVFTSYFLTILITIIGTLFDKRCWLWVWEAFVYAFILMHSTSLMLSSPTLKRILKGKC

Row | Structure (SMILES) | TAS2R38 (PAV) bitter receptor activity (functional response) (TAS2R38 (PAV); [11]) | EC50 (TAS2R38 (PAV); [12]) | TAS2R16 response to stimulation, previously shown (TAS2R16) | TAS2R44 response to stimulation, previously shown (TAS2R44 [1]) | TAS2R9 response to stimulation, previously shown (TAS2R9 [2]) | TAS2R4 response to stimulation, previously shown (TAS2R4 [3]) | TAS2R1 response to stimulation, previously shown (TAS2R1) | TAS2R39 bitter receptor activity (functional response) (TAS2R39; [11]) | EC50 (TAS2R39; [12]) | TAS2R13 response to stimulation, previously shown (TAS2R13 [4]) | TAS2R14 response to stimulation, previously shown (TAS2R14 [5]) | TAS2R13 bitter receptor activity (functional response) (TAS2R13 [6]) | TAS2R14 bitter receptor activity (functional response) (TAS2R14 [7]) | TAS2R44 bitter receptor activity (functional response) (TAS2R44 [8]) | TAS2R9 bitter receptor activity (functional response) (TAS2R9 [9]) | TAS2R4 bitter receptor activity (functional response) (TAS2R4 [10])
1 | CC1=CC(=O)NS(=O)(=O)O1 [Acesulfame K] | strongly and specifically responded | 5 to 10 mM | specifically respond | specifically respond | specifically respond | specifically respond | specifically respond | strongly and specifically responded | 5 to 10 mM | specifically respond | specifically respond |  |  |  |  | 
2 | CC(O)C(=O)[O-].[K+] (stereo not shown) [potassium lactate] |  |  |  |  |  |  |  |  |  |  |  | activate | activate | activate | activate | activate
